Source: patent US8952024B2, “Herbicidal pyrimidone derivatives” (E I du Pont de Nemours and Company, priority 2009, dated 2015)

Legend:
Assay in all cases: Test B pre-/postemergence plant response
Type in all cases: in vivo
[1] = test system: ragweed (common ragweed, Ambrosia elatior)
In short: (§1)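 Seeds sown in loam–sand blend were treated preemergence, and plants at 2–18 cm (1- to 4-leaf stage) in peat-based medium were treated postemergence; compounds were formulated in non-phytotoxic solvent with surfactant. After 13–15 days in greenhouse, response was visually rated against controls, 0 (no effect) to 100 (complete control).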

[2] = test system: large crabgrass (Digitaria sanguinalis)
In short: as §1

[3] = test system: velvetleaf (Abutilon theophrasti)
In short: as §1

[4] = test system: kochia (Kochia scoparia); details: Preemergence
In short: as §1

[5] = test system: goosegrass (Eleusine indica)
In short: as §1

[6] = test system: cocklebur (Xanthium strumarium)
In short: as §1

[7] = test system: blackgrass (Alopecurus myosuroides)
In short: as §1

[8] = test system: johnsongrass (Sorghum halepense)
In short: as §1

[9] = test system: morningglory (Ipomoea coccinea)
In short: as §1

[10] = test system: corn (Zea mays)
In short: as §1

[11] = test system: Italian ryegrass (Lolium multiflorum)
In short: as §1

[12] = test system: giant foxtail (Setaria faberii)
In short: as §1

[13] = test system: green foxtail (Setaria viridis)
In short: as §1

[14] = test system: soybean (Glycine max)
In short: as §1

[15] = 250 g ai/ha, Preemergence, 0 to 100 scale
[16] = Postemergence, 31 g ai/ha, scale 0 to 100 (0 no effect, 100 complete control)
[17] = Postemergence, 62 g ai/ha, scale 0 (no effect) to 100 (complete control), 13 to 15 days
[18] = Postemergence, 125 g ai/ha, visual rating after 13 to 15 days, scale 0 (no effect) to 100 (complete control)
[19] = Postemergence, 250 g ai/ha, scale 0 to 100
[20] = Preemergence, 31 g ai/ha, scale 0 to 100 (0 no effect, 100 complete control)
[21] = Preemergence, 62 g ai/ha, scale 0 to 100 (0 no effect, 100 complete control)
[22] = Preemergence, 125 g ai/ha, 0 to 100 scale

Compound: O=C1CCCC(O)=C1C(=O)c1cnc(-c2ccccc2)n(-c2ccccc2F)c1=O [Compound 26]
- Plant response rating, Ragweed [1, 15]: 100
- Plant response rating, Ragweed [1, 16]: 70
- Plant response rating, Ragweed [1, 17]: 85
- Plant response rating, Ragweed [1, 18]: 98
- Ragweed plant response rating [1, 19]: 100
- Plant response rating, Ragweed [1, 20]: 65
- Plant response rating, Ragweed [1, 21]: 85
- Ragweed plant response rating [1, 22]: 95
- Plant response rating, Crabgrass, Large [2, 15]: 100
- Plant response rating, Crabgrass, Large [2, 16]: 40
- Plant response rating, Crabgrass, Large [2, 17]: 50
- Plant response rating, Crabgrass, Large [2, 18]: 50
- Crabgrass, Large plant response rating [2, 19]: 80
- Plant response rating, Crabgrass, Large [2, 20]: 0
- Plant response rating, Crabgrass, Large [2, 21]: 40
- Crabgrass, Large plant response rating [2, 22]: 100
- Plant response rating, Velvetleaf [3, 15]: 100
- Plant response rating, Velvetleaf [3, 16]: 70
- Plant response rating, Velvetleaf [3, 17]: 70
- Plant response rating, Velvetleaf [3, 18]: 95
- Velvetleaf plant response rating [3, 19]: 98
- Plant response rating, Velvetleaf [3, 20]: 50
- Plant response rating, Velvetleaf [3, 21]: 90
- Velvetleaf plant response rating [3, 22]: 100
- Plant response rating, Kochia ([4]; 250 g ai/ha, 0 to 100 scale): 100
- Plant response rating, Kochia ([4]; 31 g ai/ha, scale 0 to 100 (0 no effect, 100 complete control)): 80
- Plant response rating, Kochia ([4]; 62 g ai/ha, scale 0 to 100 (0 no effect, 100 complete control)): 100
- Kochia plant response rating ([4]; 125 g ai/ha, 0 to 100 scale): 100
- Plant response rating, Goosegrass [5, 15]: 100
- Plant response rating, Goosegrass [5, 16]: 60
- Plant response rating, Goosegrass [5, 17]: 90
- Plant response rating, Goosegrass [5, 18]: 95
- Goosegrass plant response rating [5, 19]: 95
- Plant response rating, Goosegrass [5, 20]: 5
- Goosegrass plant response rating [5, 22]: 95
- Plant response rating, Cocklebur [6, 15]: 98
- Plant response rating, Cocklebur [6, 16]: 80
- Plant response rating, Cocklebur [6, 17]: 80
- Plant response rating, Cocklebur [6, 18]: 95
- Cocklebur plant response rating [6, 19]: 100
- Plant response rating, Cocklebur [6, 20]: 10
- Plant response rating, Cocklebur [6, 21]: 40
- Cocklebur plant response rating [6, 22]: 85
- Plant response rating, Blackgrass [7, 15]: 10
- Plant response rating, Blackgrass [7, 16]: 0
- Plant response rating, Blackgrass [7, 17]: 0
- Plant response rating, Blackgrass [7, 18]: 10
- Blackgrass plant response rating [7, 19]: 40
- Plant response rating, Blackgrass [7, 20]: 0
- Plant response rating, Blackgrass [7, 21]: 0
- Blackgrass plant response rating [7, 22]: 0
- Plant response rating, Johnsongrass [8, 15]: 90
- Plant response rating, Johnsongrass [8, 16]: 35
- Plant response rating, Johnsongrass [8, 17]: 50
- Plant response rating, Johnsongrass [8, 18]: 50
- Johnsongrass plant response rating [8, 19]: 70
- Plant response rating, Johnsongrass [8, 20]: 0
- Plant response rating, Johnsongrass [8, 21]: 10
- Johnsongrass plant response rating [8, 22]: 60
- Plant response rating, Morningglory [9, 15]: 100
- Plant response rating, Morningglory [9, 16]: 50
- Plant response rating, Morningglory [9, 17]: 50
- Plant response rating, Morningglory [9, 18]: 75
- Morningglory plant response rating [9, 19]: 75
- Plant response rating, Morningglory [9, 20]: 100
- Plant response rating, Morningglory [9, 21]: 100
- Morningglory plant response rating [9, 22]: 100
- Plant response rating, Corn [10, 15]: 0
- Plant response rating, Corn [10, 16]: 35
- Plant response rating, Corn [10, 17]: 35
- Plant response rating, Corn [10, 18]: 40
- Corn plant response rating [10, 19]: 50
- Plant response rating, Corn [10, 20]: 0
- Plant response rating, Corn [10, 21]: 0
- Corn plant response rating [10, 22]: 0
- Plant response rating, Ryegrass, Italian [11, 15]: 0
- Plant response rating, Ryegrass, Italian [11, 16]: 0
- Plant response rating, Ryegrass, Italian [11, 17]: 0
- Plant response rating, Ryegrass, Italian [11, 18]: 10
- Ryegrass, Italian plant response rating [11, 19]: 45
- Plant response rating, Ryegrass, Italian [11, 20]: 0
- Plant response rating, Ryegrass, Italian [11, 21]: 0
- Ryegrass, Italian plant response rating [11, 22]: 0
- Plant response rating, Foxtail, Giant [12, 15]: 90
- Plant response rating, Foxtail, Giant [12, 16]: 60
- Plant response rating, Foxtail, Giant [12, 17]: 60
- Plant response rating, Foxtail, Giant [12, 18]: 70
- Foxtail, Giant plant response rating [12, 19]: 95
- Plant response rating, Foxtail, Giant [12, 20]: 5
- Plant response rating, Foxtail, Giant [12, 21]: 10
- Foxtail, Giant plant response rating [12, 22]: 45
- Plant response rating, Foxtail, Green [13, 15]: 70
- Plant response rating, Foxtail, Green [13, 16]: 35
- Plant response rating, Foxtail, Green [13, 17]: 40
- Plant response rating, Foxtail, Green [13, 18]: 85
- Foxtail, Green plant response rating [13, 19]: 95
- Plant response rating, Foxtail, Green [13, 20]: 0
- Plant response rating, Foxtail, Green [13, 21]: 0
- Foxtail, Green plant response rating [13, 22]: 30
- Plant response rating, Soybean [14, 15]: 90
- Plant response rating, Soybean [14, 16]: 95
- Plant response rating, Soybean [14, 17]: 95
- Plant response rating, Soybean [14, 18]: 95
- Soybean plant response rating [14, 19]: 98
- Plant response rating, Soybean [14, 20]: 50
- Plant response rating, Soybean [14, 21]: 60
- Soybean plant response rating [14, 22]: 80
